The values that follow come from ChEMBL document CHEMBL4706630, “Modulation of the G-Protein-Coupled Receptor 84 (GPR84) by Agonists and Antagonists” (J Med Chem, 2020).

Assay [1] addresses T1, G-protein coupled receptor 84 (Mus musculus, UniProt Q8CIM5). The experiment in a line: Antagonist activity at GPR84 in LPS-treated mouse RAW 264.7 cell membrane assessed as reduction in PSB-16671-induced stimulation of [35S]GTPgammaS binding preincubated for 15 mins followed by PSB-16671 addition and subsequent addition of [35S]GTPgammaS measured after 60 mins by liquid scintillation spectroscopy. The format is functional, cell membranes, RAW264.7.

Assay [2] deals with T1, G-protein coupled receptor 84. The experiment in a line: Antagonist activity at mouse Galphai2-coupled GPR84 expressed in human Flp-In-T-REx-293 cell membrane assessed as reduction in PSB-16671-induced stimulation of [35S]GTPgammaS binding preincubated for 15 mins followed by PSB-16671 addition and subsequent addition of [35S]GTPgammaS measured after 60 mins by liquid scintillation spectroscopy. The class given is functional, cell membranes.

Assay [3] has as its target T2, G-protein coupled receptor 84 (Homo sapiens, UniProt Q9NQS5). The experiment in a line: Antagonist activity at GPR84 in LPS-treated human THP-1 cell membrane assessed as reduction in ZQ-16-induced stimulation of [35S]GTPgammaS binding preincubated for 15 mins followed by ZQ-16 addition and subsequent addition of [35S]GTPgammaS measured after 60 mins by liquid scintillation spectroscopy. The class given is functional.

Assay [4] deals with T2, G-protein coupled receptor 84. The experiment in a line: Antagonist activity at human Flag-tagged Gialpha-coupled GPR84 expressed in human Flp-In-T-REx-293 cell membrane assessed as reduction in PSB-16671-induced stimulation of [35S]GTPgammaS binding preincubated for 15 mins followed by PSB-16671 addition and subsequent addition of [35S]GTPgammaS measured after 60 mins by liquid scintillation spectroscopy. The format is functional, cell membranes.

Assay [5] has the same target. The experiment in a line: Antagonist activity at recombinant human N-terminal epitope tagged/eYFP-fused FLAG-tagged GPR84 expressed in Flp-In TREx 293 cells assessed as inhibition of embelin-induced [35S]GTPgammaS binding pre-incubated for 15 mins followed by [35S]GTPgammaS addition and measured after 45 mins by liquid scintillation spectrometry. The class given is functional, cell-based, Flp-In-T-REx-293.

Assay [6] has the same target. The experiment in a line: Antagonist activity at GPR84 in LPS-treated human THP-1 cell membrane assessed as reduction in PSB-16671-induced stimulation of [35S]GTPgammaS binding preincubated for 15 mins followed by PSB-16671 addition and subsequent addition of [35S]GTPgammaS measured after 60 mins by liquid scintillation spectroscopy. The class given is functional.
Assay [7] shares this target. The experiment in a line: Antagonist activity at recombinant human N-terminal epitope tagged/eYFP-fused FLAG-tagged GPR84 expressed in Flp-In TREx 293 cells assessed as inhibition of DIM-induced [35S]GTPgammaS binding pre-incubated for 15 mins followed by [35S]GTPgammaS addition and measured after 45 mins by liquid scintillation spectrometry. The class given is functional, cell-based, Flp-In-T-REx-293.

For assay [8] the target is unchanged. The experiment in a line: Antagonist activity at recombinant human N-terminal epitope tagged/eYFP-fused FLAG-tagged GPR84 expressed in Flp-In TREx 293 cells assessed as inhibition of decanoic acid-induced [35S]GTPgammaS binding pre-incubated for 15 mins followed by [35S]GTPgammaS addition and measured after 45 mins by liquid scintillation spectrometry. The class given is functional, cell-based, Flp-In-T-REx-293.

The target is the same in assay [9]. Description: Antagonist activity at human GPR84 expressed in CHO-K1 cells assessed as reduction in 6-OAU-induced inhibition of forskolin stimulated cAMP production preincubated for 15 mins followed by forskolin and 6-OAU stimulation and measured after 30 mins by luminescence method. The class given is functional, cell-based.
The target of assay [10] is T1, G-protein coupled receptor 84. The experiment in a line: Agonist activity at GPR84 in mouse bone-marrow-derived neutrophils assessed as stimulation of [35S]GTPgammaS binding incubated for 60 mins by liquid scintillation spectroscopy. The format is functional, tissue-based, Neutrophil.
Assay [11] deals with T2, G-protein coupled receptor 84. The experiment in a line: Agonist activity at human Gialpha-coupled GPR84 expressed in baculovirus infected sf9 insect cells assessed as induction of [35S]GTPgammaS incubated for 1 hr by liquid scintillation counting method. The class given is functional.
The target is the same in assay [12]. Description: Agonist activity at human GPR84 expressed in CHO cells assessed as reduction in forskolin-stimulated cAMP production preincubated for 20 mins followed by forskolin stimulation and measured after 20 mins by cAMP assay. The format is functional, cell-based.
Assay [13] shares this target. The experiment in a line: Agonist activity at human GPR84 expressed in CHO cell membranes assessed as induction of [35S]GTPgammaS incorporation incubated for 1 hr by liquid scintillation counting method. The class given is functional, Cell membrane.

pEC50, pIC50: −log10 of the molar value.

T2 sequence (Q9NQS5 whole entry): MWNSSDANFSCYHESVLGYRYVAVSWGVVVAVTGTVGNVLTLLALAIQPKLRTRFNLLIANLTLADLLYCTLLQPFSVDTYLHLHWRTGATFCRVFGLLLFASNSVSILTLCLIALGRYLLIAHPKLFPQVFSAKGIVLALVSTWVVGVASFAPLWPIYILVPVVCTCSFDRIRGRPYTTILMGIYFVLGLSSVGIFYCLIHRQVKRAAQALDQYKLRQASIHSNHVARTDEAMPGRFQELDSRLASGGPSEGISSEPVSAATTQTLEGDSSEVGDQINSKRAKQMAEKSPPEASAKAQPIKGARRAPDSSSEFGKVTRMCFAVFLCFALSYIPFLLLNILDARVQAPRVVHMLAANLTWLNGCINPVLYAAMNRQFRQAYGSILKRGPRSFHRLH
T1 sequence (Q8CIM5 whole entry): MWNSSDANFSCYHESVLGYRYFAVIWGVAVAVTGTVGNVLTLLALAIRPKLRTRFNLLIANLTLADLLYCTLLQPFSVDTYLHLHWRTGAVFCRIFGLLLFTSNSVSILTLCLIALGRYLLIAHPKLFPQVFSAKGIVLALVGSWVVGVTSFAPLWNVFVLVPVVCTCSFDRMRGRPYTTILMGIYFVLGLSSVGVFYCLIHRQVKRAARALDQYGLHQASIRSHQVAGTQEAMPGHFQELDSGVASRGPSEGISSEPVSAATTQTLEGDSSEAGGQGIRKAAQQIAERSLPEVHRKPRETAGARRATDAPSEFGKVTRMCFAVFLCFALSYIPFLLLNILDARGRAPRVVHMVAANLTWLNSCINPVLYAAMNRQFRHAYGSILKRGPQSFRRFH

As for `O=c1nc(OCC2COCCO2)cc2n1CCc1cc(C#CCNc3ccccc3)ccc1-2` (stereo not given), the pIC50 in assay [1] was 6.84; in assay [2] it was 7.17; in [3], 7.85; in assay [4], 9.05; in assay [5] it was 7.66; in [6] it was 8.32. Further, the figures for the pIC50 in assay [7] and in assay [8] were 7.68 and 7.60, respectively.
For the molecule `O=c1nc(OC[C@@H]2COCCO2)cc2n1CCc1cc(COCC3CCOCC3)ccc1-2`, the pIC50 in assay [5] was 7.08; in assay [7], 7.26; in assay [8], 6.77.
`O=c1nc(OC[C@H]2COCCO2)cc2n1CCc1cc(OCc3noc(C4CC4)n3)ccc1-2`: the pIC50 in assay [5] is 7.85; in [7], 7.07; in assay [8] it was 7.55.
For `O=c1nc(OCC2COCCO2)cc2n1CCc1cc(OCc3ccccn3)ccc1-2` (stereo not given), the pIC50 in assay [9] was 6.59.
As to `CCCCCCSc1nc(O)cc(O)n1`, in assay [10], the pEC50 was 7.89.
With `Fc1cc(F)c2[nH]cc(Cc3c[nH]c4c(F)cc(F)cc34)c2c1`, the pEC50 in assay [10] was 5.54.
Consider `CCCCCCCCCC(O)CC(=O)O` (stereo not given), for which the pEC50 in [11] is 4.89.
Regarding `CCCCCCCCC(=O)O` [NONANOATE], the pEC50 in [12] was 4.28; in [13], 4.15.
